The test system of the experiment is TC71 Ewing sarcoma viability, CellTiter-Glo ATP, 72 h. The experiment can be described thus: TC71 Ewing sarcoma cell killing, confirmation, luminescence, cherry-picked samples, retest (AID 720570).

The record followed here is PubChem BioAssay AID720570 (Broad Institute, 2013).

Active and inactive are the calls of the source.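 Rule for the calls: active = cell-killing curve crosses a set limit at a concentration no more than twice the top valid dose; inconclusive = flat curve with a 30 to 70% loss, or a poor fit; inactive = signal rising instead of falling, and the rest.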

On to `CCc1ccc2oc(C(=O)N3CCN(c4ccccc4OC)CC3)cc(=O)c2c1`, for which the AC35 is 12.6 µM.
For `COc1cc(-c2coc3c(C(=O)NCc4ccc(C(F)(F)F)cc4)cccc23)ccc1O`, the AC35 is 4.09 µM.
With `NC(Cc1ccc(C(F)(F)F)cc1)c1csc(NC(=O)Nc2ccccc2Cc2ccccc2)n1` (stereo not drawn), the AC35 was 12.7 µM.
As for `Cc1ccc(S(=O)(=O)Nc2ccc3c(c2)C(=O)N([C@H](C)CO)C[C@H](C)[C@@H](CN(C)Cc2ccc(C(F)(F)F)cc2)OCCCC[C@H](C)O3)cc1`, the AC35 is 12.1 µM.
Then `C[C@@H]1CN([C@H](C)CO)C(=O)c2cc(NC(=O)CCCCCC(=O)Nc3ccccc3N)ccc2O[C@@H]1CN(C)Cc1ccc(Cl)c(Cl)c1`, with 12.8 µM; and `CC(=O)Nc1cccc(-c2ccnc3c2CC(C)(C(=O)NCc2ccc(N(C)C)cc2)O3)c1` (stereo not drawn), with 7.01 µM; and `C[C@@H]1CCCCO[C@H](CN(C)Cc2ccc(C(=O)Nc3ccccc3N)cc2)[C@@H](C)CN([C@@H](C)CO)C(=O)c2cc(NS(=O)(=O)c3ccc(Cl)cc3)ccc2O1`, with 13.6 µM.
Next, `CC1=NN(c2ccc(C)cc2)C(=O)/C1=C\C=C\c1ccccc1`: 18.8 µM.
Consider `N#C[C@H]1[C@H](c2ccc(-c3ccccc3F)cc2)[C@@H](CO)N1C(=O)c1ccccn1`, for which the AC35 was 13.9 µM.
Next, `CC(C)N1C/C(=C/c2cccnc2)C(=O)/C(=C/c2cccnc2)C1`: 22.6 µM.
With `CC(C)(C)[S@](=O)N1Cc2cc(C(=O)NCC(F)(F)F)nc(-c3cccc(-c4cccc(F)c4)c3)c2[C@@H]1CCO`, the AC35 is 16.5 µM.
For the compound `C#CCOCCOCCOCCNc1nc(N2CCN(C(=O)CCCCCCCCCCNC(=O)Cn3cc(C[C@@H](C)O)nn3)CC2)nc(N2CCN(C(=O)CCCCCCCCCCNC(=O)[C@H](CO)n3cc(CCCSC)nn3)CC2)n1`, the AC35 was 21.5 µM.
As for `C[C@@H]1CN([C@@H](C)CO)C(=O)c2cc(NS(=O)(=O)c3ccc(Cl)cc3)ccc2O[C@@H]1CN(C)Cc1ccc(C(=O)Nc2ccccc2N)cc1`, the AC35 was 12.7 µM.
`O=C(Sc1cccc2cccnc12)c1ccccc1Br`: the AC35 was 10.5 µM.
Then `CN(C)c1ccc2c(c1)[C@@H]1C[C@@H](CC(=O)NCc3ccc(Oc4ccccc4)cc3)O[C@H](CO)[C@@H]1O2`, with 14.3 µM; and `O=C(Nc1ccccc1F)N1CCCCN2[C@H](CO)[C@H](c3ccc(/C=C/c4ccccc4)cc3)[C@H]2C1`, with 10.6 µM.
On to `CC(=O)OC1CC2(O)C3CCC4CC(O)CCC4(C)C3CCC2(C)C1C1=CC(=O)OC1` (stereo not drawn), for which the AC35 is 0.797 µM.
Next, `CCNC(=O)c1cc2c(c(-c3cccc(-c4cccc(OC)c4)c3)n1)[C@H](CCO)N([S@@](=O)C(C)(C)C)C2`: 7.43 µM.
For the compound `COc1ccc(OC)c(Cc2cnc3nc(N)nc(N)c3c2C)c1`, the AC35 was 0.0778 µM.
Then `Cc1cc(-c2nc3ccccc3s2)ccc1N`, with 17.7 µM; and `CCN1/C(=C/C=C/c2oc3ccc(-c4ccccc4)cc3[n+]2CC)Oc2ccc(-c3ccccc3)cc21`, with 2.39 µM.
In the case of `COc1ccc(S(=O)(=O)N2CC[C@@H]3[C@@H](CO)Nc4ccc(-c5ccc(C#N)cc5)cc4[C@@H]32)cc1`, the AC35 is 2.52 µM.
Then `Cc1cccc(/C=C(\c2nc3ccccc3[nH]2)S(=O)(=O)c2ccccc2)c1`, with 9.6 µM; and `C[C@H]1CN([C@@H](C)CO)C(=O)Cc2cc(NC(=O)CCCCCC(=O)Nc3ccccc3N)ccc2O[C@H]1CN(C)Cc1ccc(C(F)(F)F)cc1`, with 11.6 µM; and `C[C@@H]1CN([C@@H](C)CO)C(=O)c2cc(NC(=O)Nc3ccccc3)ccc2O[C@@H]1CN(C)Cc1ccc(C(=O)Nc2ccccc2N)cc1`, with 6.58 µM.
In the case of `O=C(/C=C/c1cc(Br)ccc1O)c1ccco1`, the AC35 is 16.7 µM.
Turning to `COc1ccc(NC(=O)N2CCCCN3[C@H](CO)[C@H](c4ccc(C#CCC(C)C)cc4)[C@H]3C2)cc1`, the AC35 is 12.2 µM.
Then `COCC(=O)Nc1ccc2c(c1)[C@@H]1C[C@@H](CC(=O)NCc3ccc(-c4ccccc4)cc3)O[C@@H](CO)[C@@H]1O2`, with 12.9 µM; and `O=c1ccc2[n+]([O-])c3ccc(O)cc3oc-2c1`, with 9.82 µM; and `C[C@]12CC[C@H](O)C[C@H]1CC[C@@H]1C2CC[C@]2(C)[C@@H](C3=CC(=O)OC3)[C@@H](O)C[C@]12O` (stereo partly drawn), with 9.35 µM.
Next, `CN=c1scc(-c2cccs2)n1/N=C/c1ccccc1O`: 21.7 µM; `CC(C)=CCC/C(C)=C/CN1C(=O)N(c2ccc(F)cc2)[C@H]2C[C@@H](c3ccccc3)[C@@H](C)[C@@H](C(=O)N3CCOCC3)C[C@H]21`: 4.4 µM; `OCC1OC(n2cnc3c(NCc4ccco4)ncnc32)C(O)C1O` (stereo not drawn): 7.82 µM.
As to `C(=NNc1ccc2ccccc2n1)c1ccccn1`, the AC35 was 1.55 µM.
Then `C[C@H](CO)N1C[C@H](C)[C@H](CN(C)Cc2ccc(C(F)(F)F)cc2)Oc2ccc(NC(=O)CCCCCC(=O)Nc3ccccc3N)cc2CC1=O`, with 11.5 µM; and `C[C@H]1CN([C@@H](C)CO)S(=O)(=O)c2ccc(C#CC(C)(C)O)cc2O[C@@H]1CN(C)Cc1ccc(-c2ccccc2)cc1`, with 0.414 µM; and `Cc1cccc(N2CCN(C3C(=O)Nc4ccccc4-n4nnnc43)CC2)c1C` (stereo not drawn), with 13.9 µM.
As for `Cc1cc(C)c2sc(NNC(=O)c3ccc(S(=O)(=O)N4CCc5ccccc5C4)cc3)nc2c1`, the AC35 was 2.4 µM.
Then `Cc1ccc(S(=O)(=O)Nc2ccc3c(c2)C(=O)N([C@@H](C)CO)C[C@@H](C)[C@@H](CN(C)Cc2ccc(C(=O)Nc4ccccc4N)cc2)O3)cc1`, with 11.5 µM; and `COC(=O)C1=C(C)N(Cc2cccc(C(F)(F)F)c2)C(=NCc2ccc(OC)cc2)NC1c1cccc(F)c1` (stereo not drawn), with 10.9 µM.
Next, `Nc1nc(=S)c2ncn([C@@H]3O[C@H](CO)[C@@H](O)[C@H]3O)c2[nH]1`: 1.74 µM; `OC[C@H]1[C@@H](c2ccc(C#CC3CCCC3)cc2)[C@@H]2CN(CCC(F)(F)F)CCCCN12`: 18 µM.
Next, `COc1ccc(S(=O)(=O)N2CC[C@@H]3[C@H](CO)Nc4ccc(-c5ccc(C#N)cc5)cc4[C@@H]32)cc1`: 4.88 µM.
Turning to `COc1ccc(CC(N)c2csc(NC(=O)Nc3cccc(C(F)(F)F)c3)n2)cc1` (stereo not drawn), the AC35 was 19.1 µM.
Then `CCCCCCCCn1c2c(c(=N)c3c1CCC3)CCCC2`, with 4.88 µM.
In the case of `COc1ccccc1C(CCNCc1ccc(N(C)C)cc1)c1ccc(OC(C)C)cc1` (stereo not drawn), the AC35 is 10.9 µM.
For `C[C@@H]1CN([C@@H](C)CO)C(=O)Cc2cc(N(C)C)ccc2O[C@H]1CN(C)Cc1ccc(C(=O)Nc2ccccc2N)cc1`, the AC35 is 13.1 µM.
On to `Cc1ccc(/C=N/Nc2ccc3ccccc3n2)o1`, for which the AC35 is 18.4 µM.
Then `COc1ccc(Cn2cc3c(-c4ccc(F)cc4)nnc-3c3cc(OC)c(OC)cc32)cc1`, with 13.4 µM; and `CC(C)(C)c1ccc(Oc2ccc(N)cn2)cc1`, with 4.73 µM.
For the compound `O=C1CCCC2=C1C(c1ccccn1)Nc1ccc(C(=O)c3ccccc3)cc1N2` (stereo not drawn), the AC35 was 17.4 µM.
With `OCC1OC(n2ccc3c2ncn2ncnc32)C(O)C1O` (stereo not drawn), the AC35 was 3.83 µM.
Next, `CCCCc1c(-c2ccccc2OC)ncn1Cc1ccc(C(C)(C)C)cc1`: 13.1 µM; `C[C@H](CO)N1C[C@H](C)[C@@H](CN(C)Cc2ccc(Oc3ccccc3)cc2)Oc2ccc(NS(=O)(=O)c3ccc(Cl)cc3)cc2CC1=O`: 13 µM.
With `C[C@H](CO)N1C[C@H](C)[C@H](CN(C)Cc2ccc(C(=O)Nc3ccccc3N)cc2)Oc2ccc(N(C)C)cc2CC1=O`, the AC35 was 6.82 µM.
On to `COc1cc2oc3cc(C#Cc4ccc(N)cc4)ccc3c(=O)c2cc1OC`, for which the AC35 was 6.86 µM.
Then `COc1cccc(O)c1CN1CCC(C(=O)Nc2ccc(-c3cccc(C)c3)cc2)CC1`, with 20.7 µM.
`O=C(NC1CCCC1)N1CCCCN2[C@@H](CO)[C@@H](c3ccc(/C=C/c4ccccc4)cc3)[C@@H]2C1`: the AC35 is 13.6 µM.
Then `Cc1ccc(C)c(S(=O)(=O)N2CCN(c3ncnc4sccc34)CC2)c1`, with 6.72 µM; and `N=c1ccn2c(n1)O[C@H]1[C@H](O)[C@@H](CO)O[C@H]12`, with 3 µM.
Next, `CC1(C(=O)NCc2ccco2)Cc2c(-c3cccc(C(N)=O)c3)ccnc2O1` (stereo not drawn): 7.99 µM; `Oc1c(Cl)cc(Cl)c(Cl)c1Cc1c(O)c(Cl)cc(Cl)c1Cl`: 3.22 µM.
For the compound `Nc1cc2c(cc1Br)[nH]c(=O)c1ccccc12`, the AC35 is 23.3 µM.
For `N#CC1=C(N)Oc2cc(N)ccc2C1c1cccc(F)c1` (stereo not drawn), the AC35 was 4.98 µM.
Consider `C[C@@H]1CN([C@H](C)CO)C(=O)Cc2cc(NC(=O)CCCCCC(=O)Nc3ccccc3N)ccc2O[C@@H]1CN(C)CC1CCCCC1`, for which the AC35 was 16.9 µM.
Next, `C=C1C(=O)[C@@]23[C@H](O)C[C@@H]4C(C)(C)CC[C@H](O)[C@@]4(C)[C@@H]2CC[C@@H]1[C@H]3O`: 9.15 µM.
Then `CN(C)c1ccc(N=Nc2nc3ccccc3n2C)cc1`, with 13.6 µM.
With `CC12CCC(O)CC1CCC1C2CCC2(C)C(C3=CC(=O)OC3)CCC12O` (stereo not drawn), the AC35 was 1.17 µM.
Then `COc1ccccc1-c1ccc(OCCCN2CCC(C(O)(c3ccccc3)c3ccccc3)CC2)cc1`, with 13.7 µM.
Then `O=C(O)c1ccccc1C(=O)Nc1ccc(Oc2ccc3ccccc3c2)cc1`, with 9.26 µM.
Then `COc1ccc(C2=Nn3c(nnc3-c3ccccc3F)SC2)cc1OC1CCOC1` (stereo not drawn), with 4.93 µM; and `C[C@@H]1CN([C@@H](C)CO)C(=O)Cc2cc(NS(=O)(=O)c3cccs3)ccc2O[C@H]1CN(C)Cc1ccc(Cl)c(Cl)c1`, with 12.3 µM.
For `C[C@H](CO)N1C[C@H](C)[C@H](CN(C)CC2CCCCC2)Oc2ccc(NC(=O)CCCCCC(=O)Nc3ccccc3N)cc2CC1=O`, the AC35 was 18.9 µM.
For `COc1ccc(S(=O)(=O)Nc2cccc3c2O[C@H](CN(C)Cc2ccc(C(=O)Nc4ccccc4N)cc2)[C@H](C)CN([C@@H](C)CO)C3=O)cc1`, the AC35 is 5.62 µM.
Next, `Cc1ccc(S(=O)(=O)N(C)C[C@@H]2Oc3ccc(NC(=O)CCCCCC(=O)Nc4ccccc4N)cc3CC(=O)N([C@@H](C)CO)C[C@@H]2C)cc1`: > 21 µM (inactive); `O=C1NC(=O)N(Cc2ccc(F)cc2)C(=O)/C1=C\C=C\c1ccco1`: 9.09 µM.
In the case of `COc1cccc(OC)c1C(=O)Nc1cc(C)nn1-c1nc2ccccc2[nH]1`, the AC35 is 18.2 µM.
Consider `C[C@@H]1CN([C@@H](C)CO)C(=O)c2cc(NC(=O)c3ccccc3)ccc2O[C@@H](C)CCCCO[C@H]1CN(C)C(=O)Nc1cccc2ccccc12`, for which the AC35 is 0.679 µM.
